{"source": "patent US11186603B2", "about": "“Heparan sulfate glycomimetic compounds and their pharmaceutical and cosmeceutical uses” (VICTORIA LINK LIMITED, priority 2017, dated 2021)", "key": {"[1]": {"tested_on": "GM03123 (NPC) fibroblast cell line", "assay": "NPC cholesterol activity: filipin staining, LSO ratio", "format": "cell-based, human", "settings": "for LSO %: GM03123 (NPC), 48 hours", "from_the_text": "(§1) Fibroblast cell lines derived from Alzheimer and Niemann-Pick Type C (NPC) patients and healthy controls were obtained from the […] (Camden, N.J., USA). Cell line GM03123 was derived from a NPC patient with two heterozygous mutations in the NPC1 gene. Cell line GM09503 was used as a healthy control for the NPC cell line. Cell line ND41001 was derived from a patient carrying a Presenilin 1 mutation with familial (early onset) Alzheimer's disease (AD). Cell line ND38530 was used as a healthy control for the AD cell line. Further details of the cell lines are available at the Cornell Cell Repository website (https://catalog.coriell.org/).\n(§2) Cell culture work was carried out in sterile conditions in an Email Air Handling Class II Biological Safety Cabinet (AES Environmental Pty LTD, Australia). All cell lines were cultured in DMEM (10313-021, Life Technologies New Zealand) supplemented with 10% fetal calf serum (Thermo Fisher Scientific New Zealand), 1× GlutaMAX™ Supplement (stabilised L-glutamine, Gibco Life Technologies New Zealand), 100 units/mL penicillin and 100 units/mL streptomycin (Life Technologies New Zealand). Cell lines were maintained in or 75 cm^2 flasks (Corning, Invitro Technologies New Zealand) in a humidified incubator (Sanyo Electric Co. Ltd, Japan) at 37° C. and 5% CO2. Experimental cultures were carried out in the same media omitting the antibiotics to avoid any potential interaction with the compound being tested.\n(§3) For experiments, cells were seeded at a density of 1.25×10^3 cells/mL in black, 96 well plates (Cell-carrier, Perkin Elmer, Scimed New Zealand) in a volume of 100 μL media and grown for 24 hours before treating. The media was then replaced with fresh media supplemented with the required treatment. Cell lines GM03123 and ND41001 were either left untreated, or treated with either 10 μM or 100 μM of the heparan sulphate compound dissolved in sterile deionised water (dH20), 10 μM suberoylanilide hydroxamic acid (SAHA) dissolved in DMSO, or 0.1% DMSO. The healthy control cell lines GM09503 and ND38530 were left untreated or treated with U18666A dissolved in sterile dH20 at a final concentration of 1 μg/mL. U18666A causes cholesterol accumulation in the cell and is therefore a positive control for the filipin stain. Cells were then grown for 48 hours.\n(§4) Before fixing, cells were washed three times with 1× phosphate buffered saline (PBS). From this point all treatments and washes were undertaken on a rotating table at 45 revs per minute. Cells were fixed with 1.5% paraformaldehyde (PFA) in 1×PBS (Thermo Fisher Scientific New Zealand) for 20 minutes. Cells were then washed with 1×PBS for four minutes. This was repeated twice. The cells were then stained for 2 hours with 50 μg/mL Filipin dye (Filipin complex from Streptomyces filipinensis, Sigma Aldrich, Australia) protected from the light. With minimal light exposure, the cells were washed with 1×PBS for four minutes and this was repeated twice. Cells were left in 1×PBS for confocal microscopy. The filipin stained cells were imaged using a Perkin Elmer Opera™ high-throughput spinning disk confocal microscope using 405 nm laser and 20× water immersion objective. Perkin Elmer Acapella™ software was used for image analysis. In NPC cells cholesterol accumulates in organelles with the characteristics of late endosomes or early lysosomes. These can be described as lysosome-like storage organelles (LSO). Analysis of free cholesterol levels in the cells was carried out using a method designed for high throughput confocal images described by Pipalia et al., Automated microscopy screening for compounds that partially revert cholesterol accumulation in Niemann-Pick C cells, J. Lipid Res., 2006, 47(2): 284-301. A low fluorescence threshold was chosen which identified the total area occupied by cells and another higher threshold was chosen to determine the areas of bright filipin staining of cholesterol within the cell. […]"}, "[2]": {"tested_on": "ND41001 (AD) fibroblast cell line", "assay": "NPC cholesterol activity: filipin staining, LSO ratio", "format": "cell-based, human", "settings": "48 hours", "from_the_text": "as §1, §2, §3, §4"}}}
{"smiles": "O=C(CCCCCCCNC(=O)CCOCC(COCCC(=O)NCCCCCCCC(=O)NCCOCCOCCOCCC(=O)NCCCCCCOC1OC(COS(=O)(=O)[O-])C(OC2OC(COS(=O)(=O)[O-])C(OS(=O)(=O)[O-])C(OS(=O)(=O)[O-])C2OS(=O)(=O)[O-])C(OS(=O)(=O)[O-])C1OS(=O)(=O)[O-])(COCCC(=O)NCCCCCCCC(=O)NCCOCCOCCOCCC(=O)NCCCCCCOC1OC(COS(=O)(=O)[O-])C(OC2OC(COS(=O)(=O)[O-])C(OS(=O)(=O)[O-])C(OS(=O)(=O)[O-])C2OS(=O)(=O)[O-])C(OS(=O)(=O)[O-])C1OS(=O)(=O)[O-])COCCC(=O)NCCCCCCCC(=O)NCCOCCOCCOCCC(=O)NCCCCCCOC1OC(COS(=O)(=O)[O-])C(OC2OC(COS(=O)(=O)[O-])C(OS(=O)(=O)[O-])C(OS(=O)(=O)[O-])C2OS(=O)(=O)[O-])C(OS(=O)(=O)[O-])C1OS(=O)(=O)[O-])NCCOCCOCCOCCC(=O)NCCCCCCOC1OC(COS(=O)(=O)[O-])C(OC2OC(COS(=O)(=O)[O-])C(OS(=O)(=O)[O-])C(OS(=O)(=O)[O-])C2OS(=O)(=O)[O-])C(OS(=O)(=O)[O-])C1OS(=O)(=O)[O-].[Na+].[Na+].[Na+].[Na+].[Na+].[Na+].[Na+].[Na+].[Na+].[Na+].[Na+].[Na+].[Na+].[Na+].[Na+].[Na+].[Na+].[Na+].[Na+].[Na+].[Na+].[Na+].[Na+].[Na+].[Na+].[Na+].[Na+].[Na+]", "note": "(centres unmarked) [Compound 25a]", "values": [{"measurement": "LSO %", "setting": "[1]; 10 μM, LSO ratio treated/untreated x 100", "value": 76.1, "unit": "%"}, {"measurement": "LSO %", "setting": "[1]; 100 μM", "value": 64.2, "unit": "%"}, {"measurement": "effect on filipin (cholesterol) fluorescence (in words)", "setting": "[1]; fibroblast cells derived from Niemann-Pick type C and Alzheimer's disease patients", "value": "positive effect on filipin (cholesterol) fluorescence"}, {"measurement": "LSO %", "setting": "[2]; 10 μM", "value": 60.1, "unit": "%"}, {"measurement": "LSO %", "setting": "[2]; 100 μM", "value": 67.9, "unit": "%"}]}
